Results as given in PubChem BioAssay AID602354 (The Scripps Research Institute Molecular Screening Center, 2012).

Columns and labels:
[1] = biological target: Diacylglycerol lipase-beta (Mus musculus) (UniProt Q91WC9); test: DAGLb inhibition in intact mouse cells, late-stage follow-up, cell-based, gel-based competitive ABPP, fluorescence, in situ, dose response (AID 602354); conditions: DAGLb
[2] = biological target: Monoacylglycerol lipase ABHD6 (Mus musculus) (UniProt Q8R2Y0); test: as above
Monoacylglycerol lipase ABHD6 (Mus musculus), sequence (Q8R2Y0 whole entry, looked up): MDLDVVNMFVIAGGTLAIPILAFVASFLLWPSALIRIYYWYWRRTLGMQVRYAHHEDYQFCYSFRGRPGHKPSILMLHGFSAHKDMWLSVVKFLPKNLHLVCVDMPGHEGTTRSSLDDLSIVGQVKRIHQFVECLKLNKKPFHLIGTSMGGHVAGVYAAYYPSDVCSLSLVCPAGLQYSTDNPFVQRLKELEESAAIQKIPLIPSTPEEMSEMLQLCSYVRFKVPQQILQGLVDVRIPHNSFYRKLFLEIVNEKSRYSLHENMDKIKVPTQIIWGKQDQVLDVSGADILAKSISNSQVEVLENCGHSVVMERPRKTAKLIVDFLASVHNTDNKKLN

Diacylglycerol lipase-beta (Mus musculus), sequence (Q91WC9 whole entry, looked up): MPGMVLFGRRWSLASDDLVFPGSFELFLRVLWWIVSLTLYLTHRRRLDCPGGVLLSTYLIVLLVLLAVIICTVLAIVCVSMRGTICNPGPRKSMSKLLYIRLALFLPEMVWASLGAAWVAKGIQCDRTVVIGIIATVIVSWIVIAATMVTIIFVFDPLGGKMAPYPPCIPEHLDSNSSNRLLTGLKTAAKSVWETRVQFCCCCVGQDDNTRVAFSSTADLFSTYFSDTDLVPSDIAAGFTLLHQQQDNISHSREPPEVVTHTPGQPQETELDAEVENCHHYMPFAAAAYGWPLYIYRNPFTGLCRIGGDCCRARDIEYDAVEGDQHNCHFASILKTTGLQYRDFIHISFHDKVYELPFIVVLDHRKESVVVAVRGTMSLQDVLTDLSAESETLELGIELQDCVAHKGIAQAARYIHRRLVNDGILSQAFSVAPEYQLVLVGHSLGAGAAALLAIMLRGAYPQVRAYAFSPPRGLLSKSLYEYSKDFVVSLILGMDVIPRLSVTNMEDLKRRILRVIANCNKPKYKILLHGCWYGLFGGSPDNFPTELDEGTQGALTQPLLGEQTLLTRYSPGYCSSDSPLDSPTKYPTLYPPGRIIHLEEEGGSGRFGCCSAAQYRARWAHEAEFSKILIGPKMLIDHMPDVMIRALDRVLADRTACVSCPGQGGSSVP

Row | SMILES | IC50 [1] [nM] | IC50 [2] [nM]
1 | COc1ccccc1-c1ccc(-c2cn(C(=O)N3CCCCC3Cc3ccccc3)nn2)cc1 (centres undefined) | 12 | 0.48
2 | O=C(N1CCCCC1Cc1ccccc1)n1cc(-c2ccc(-c3ccccc3)cc2)nn1 (centres undefined) | 16 | 0.46
